The numbers were not newly measured in patent US10010502B2, “Device that delivers a sustained low-dose of a myopia-suppressing drug, while preserving pupillary function and accommodation” (AMORPHEX THERAPEUTICS LLC, priority 2015, dated 2018), which cites them from elsewhere.

“Also recorded” adds a separate entry of the source.

Data set [1] deals with childhood myopia. The note with it: 68 myopic children, oral dose of 400 mg.
Data set [2] deals with myopia progression.
Data set [3] concerns myopia progression. The source holds these as a separate data set.
Data set [4] relates to muscarinic receptors of the pupil and ciliary body.

For the molecule `Cn1cnc2[nH]c(=O)[nH]c(=O)c21` [7-methylxanthine], in data set [1], the “eye elongation and myopia progression” value was “reduce eye elongation and myopia progression”; the “safety / adverse effects” value was “safe and without side effects; also recorded: no reported adverse effects”.

With `CN1CCc2cccc3c2[C@H]1Cc1ccc(O)c(O)c1-3` [apomorphine], the “myopia progression in animal models” value in data set [2] is “retard myopia progression”.

For the molecule `CN1[C@@H]2CC[C@H]1C[C@@H](OC(=O)C(CO)c1ccccc1)C2` (some centres unmarked) [atropine], in data set [3] (0.01% drops), the glare symptoms result was “some mild glare symptoms” and the “visual acuity, quality of life, reading speed” value is “no decrease in visual acuity, quality of life or reading speed”. The myopia progression in data set [3] (eye drop concentrations of 0.5% and 1.0%) is on record as at most 0.2 diopters/year. Besides, in data set [3] (lower dose atropine drops, normal light conditions), the “increase in pupil size easily tolerated by children” value is 1 mm. For the same molecule, the “effect on myopia progression” value in data set [3] (lowest dose eye drops studied, 0.01%) was “less-than-optimal but measureable effect”. Further, the “duration of dilation after one drop” value in data set [3] (one eye drop) is recorded as “several days or even a week or more”.

Consider `N[C@@H](Cc1ccc(O)c(O)c1)C(=O)O` [levodopa], for which, in data set [2], the “myopia progression in animal models” value is recorded as “retard myopia progression”.

For the molecule `CN1CCN(CC(=O)N2c3ccccc3C(=O)Nc3cccnc32)CC1` [pirenzepine], the “activity at muscarinic receptors of the pupil and ciliary body relative to atropine” value in data set [4] was “less active at the muscarinic receptors of the pupil and ciliary body than atropine”.
